Ends that are not written are not given here.

One series relates to primary MSCs (KISS1R). Description: Fluorescence microscopy of probe binding to primary MSCs (alone, conditioned media, direct co-culture with MM cells). In kind it is cell-based, human. The note with it: for binding to primary MSCs under normal culture conditions: MSCs alone, room temperature, fluorescence microscopy (Cy5 filter), Fig 4A; for binding to primary MSCs under normal culture conditions / binding to MSCs and MM cells after direct co-culture: 30 min incubation, 40 μmol/l; for binding to MSCs and MM cells after direct co-culture: MSCs directly co-cultured 24 h with INA-6 or MOPC cells. The method, then:
(§1) MSCs were seeded in a Nunc^TM Lab-Tek^TM II 4-well chamber slide (6.7x10^3 cells/well) (Thermo Fischer Scientific GmbH, Erlangen, Germany) and allowed to attach overnight. Afterwards, the medium was replaced by 500 μl mixed media, 1:1 (v/v), followed by 24 h incubation. The day after, 500 μl mixed media, 1:1 (v/v) containing 1x10^4 INA-6 cells or 1.5x10^5 MOPC cells, 500 μl MM cell-derived supernatant (conditioned media) or 500 μl mixed media, 1:1 (v/v) (control) was added per well. For preparation of the conditioned media, INA-6 cells (2x10^5 cells/ml) or MOPC cells (3.75x10^4 cells/ml) were cultured for one day in mixed media, 1:1 (v/v), followed by centrifugation (270 g, 5 min) and filtration of the supernatant (filter pore size: 0.45 μm). After 24 h, cells were incubated for 30 min with either free dye or the Alexa 633-kisspeptin (40 μmol/l) at room temperature. After rinsing three times with PBS, cells were fixed in 4% paraformaldehyde and mounted with Vectashield mounting media for fluorescence containing 4',6-diamidino-2-phenylindole (Vector Laboratories, Inc., purchased from Linaris, Dossenheim, Germany). Images were acquired using a BZ-9000 fluorescence microscope (Cy5 filter) and the softwares BZ-II Viewer and BZ-II Analyzer 2.1 (all from Keyence, Neu-Isenburg, Germany).

Series [1] has as its system KISS1R-expressing cell line MCF-7. Description: Fluorescence microscopy of probe binding to cultured MCF-7 cells. The format is cell-based, human. Conditions: S2A Fig. The method, then:
as §1, with “For preparation of the conditioned media, INA-6 cells (2x10^5 cells/ml) or MOPC cells (3.75x10^4 cells/ml) were cultured for one day in mixed media, 1:1 (v/v), followed by centrifugation (270 g, 5 min) and filtration of the supernatant (filter pore size: 0.45 μm). After 24 h, cells were incubated for 30 min with either free dye or the Alexa 633-kisspeptin (40 μmol/l) at room temperature.” left out
(§2) Supplementary file pone.0155087.s002.tif: S2 Fig Alexa 633-kisspeptin binds to the KISS1R-expressing cell line MCF-7 in vitro and in vivo. Cultured MCF-7 cells were incubated with either free dye or dye conjugated to the modified kisspeptin and imaged with fluorescence microscopy (A). […] Tibia fluorescence was quantified over time (D) and plateau fluorescent values determined (E). […]

The subject of series [2] is MCF-7 tumor-burdened tibiae. Description: In vivo fluorescence imaging of mice intratibially injected with MCF-7 cells. The note with it: CD-1 nude mice, intratibial MCF-7, 100 μl of 40 μM probe, NightOwl imaging for 20 min, plateau values, n = 3, p<0.05 (S2E Fig). The method, then:
(§3) In vivo binding of Alexa 633-kisspeptin was tested in immune competent BALB/c and CD-1 nude mice, inoculated with MOPC cells and MCF-7 cells, respectively. All experiments were performed according to the German regulations for animal experimentation. The study was approved by the Regierung von Unterfranken as the responsible authority (Permit Number 55.2–2531.01-76/10 and -103/11) and by the institutional authorities of the Ethics Committee for Animal Experiments at the Christian Albrechts University of Kiel (V242-7224.121–17). 1x10^6 MCF-7 cells transfected with the near-infrared fluorescent protein [31] were suspended in 5 μl PBS and injected directly into the right tibia, with equal amounts of PBS injected into contralateral control limbs, of 3 female CD-1 nude mice (Charles River). Tumor progression was monitored using the NightOwl planar imaging system (Berthold Technologies, Bad Wildbad, Germany). […]
as §2

The subject of series [3] is MOPC315.BM2-LucGFP MM bone lesions. As to the kind of experiment: In vivo time-lapse fluorescence imaging of MM bone lesions (MOPC model). Conditions: BALB/c mice with MOPC lesions in one hind leg, 100 μl of 40 μM probe i.v., imaged for 1 h, relative to pre-scan, n = 6, p<0.01 (Fig 5E). As to the method: as §3, with “Germany). 1x10^5 MOPC cells, suspended in 100 μl PBS, were injected i.v. via the lateral tail vein into immune-competent female BALB/c mice (Charles River). 19 days after the injection of the MM cells, mice were imaged by in vivo bioluminescence (BLI) to identify 6 mice which contain lesions in only one of the hind legs. All animals were kept in temperature and humidity-controlled, pathogen-free environment, with a 12 h light/dark cycle, and access to food and water ad libitum.” for “Germany).”

The conditions of series [4]: mouse, in vivo, iv.
Experimental: BLI was performed with an IVIS Spectrum (Caliper-Xenogen, Alameda, CA, USA) as previously described [32]. Briefly, mice were anesthetized i.p. with a mixture of ketamine (100 mg/kg) and xylazine (10 mg/kg) in PBS. Luciferin (150 mg/kg) was co-injected and BLI measurements were started 10 min later. For MCF-7 mice, animals were imaged every minute following injection of 100 μl of Alexa 633-kisspeptin (40 μM) using the NightOwl. For MM-containing mice, a fluorescence pre-scan (excitation filter: 605 nm, emission filter: 660 nm; illumination time: 1 s) was performed using the IVIS Spectrum. Next, mice were injected with 100 μl of Alexa 633-kisspeptin (40 μM) in the lateral tail vein and immediately imaged every two minutes for up to 20 min using the fluorescence settings as described above. In addition, fluorescent images were acquired after 30, 45, and 60 min. At the end of the experiment mice were then euthanized, organs were prepared, and fluorescence ex vivo imaging of the organs was performed. Imaging data was analyzed with Living Image 4.0 (Caliper-Xenogen, Alameda, CA, USA) and Prism 5 software (GraphPad, La Jolla, CA, USA).
All statistical analyses were conducted using Prism 5 software. Comparison between groups was made using either a paired or unpaired two-sample t-tests. Comparison of organ fluorescence was conducted using a 1-way ANOVA and Turkey’s multiple comparison test. Alexa 633-kisspeptin binding kinetics were quantified using association then dissociation curves with time0 = 25 min and NS = 1. P values of <0.05 were considered to be statistically significant.
The subject of series [5] is matrix metalloproteinase 2. Conditions: cited from earlier work. An excerpt:
The data presented herein support KISS1R as a novel and promising new biomarker for myeloma bone disease, but still several questions remain. Firstly, while we have described the up-regulation of the KISS1R cells directly interacting with MM cells, little is known so far about the role of kisspeptin and the KISS1R in MM disease progression. It will be of great importance to understand the role of kisspeptin and the KISS1R in both bone marrow cells and MM, and to be aware of what potential side effects, either positive or negative, may be associated with targeting or activation of this system. ...

The conditions of series [6]: compared with 10, 13 and 14 amino acid isoforms; cited from earlier work.

With “Alexa Fluor 633 C5 Maleimide [free dye, reference compound]”, the “binding to primary MSCs under normal culture conditions” value in the series on primary MSCs (KISS1R) was “no notable fluorescence”. For the same substance, the “binding to MSCs and MM cells after direct co-culture” value in the series with primary MSCs (KISS1R) (Fig 4B) is listed as “failed to show any specific binding”.
“Alexa 633-kisspeptin: 54 amino acid kisspeptin with an N-terminal cysteine residue, labeled with Alexa Fluor 633 C5 Maleimide (C(Alexa Fluor 633 C5 maleimide)GTSLSPPPESSGSPQQPGLSAPHSRQIPAPQGAVLVQREKDLPNYNWNSFGLRF; ends and bridges not checked)”: the “binding to MCF-7 cells in vitro” value in series [1] was “bound”. Also, in the series with primary MSCs (KISS1R) (MSCs 24 h in INA-6 or MOPC conditioned media, 30 min with 40 μmol/l probe, Fig 4B), the “binding to MSCs cultured in MM cell conditioned media” value was “low level probe binding”. Besides, the “binding to primary MSCs under normal culture conditions” value in the series on primary MSCs (KISS1R) is “low level, heterogeneous binding”. For the same substance, the “binding to MSCs and MM cells after direct co-culture” value with primary MSCs (KISS1R) (Fig 4B) is “at high levels”. Further, in series [2], the “fluorescence signal in tumor-burdened tibiae relative to contralateral controls” value is “significantly elevated signals”. Also, the “peak fluorescence in tumor-burdened limbs compared to contralateral sites” value in series [3] is given as “Significantly greater peak fluorescence levels”. In series [4], the “organ uptake: kidney fluorescence” value is reported as “significantly high levels of fluorescence”, the “organ uptake: liver fluorescence” value is “significantly high levels of fluorescence” and the “organ uptake: ovaries” value was “a notable amount of probe was also detected”.
Turning to kisspeptin, the “cleavage by matrix metalloproteinase 2” value in series [5] is “cleaved and inactivated”. Moreover, the “stability of the 54 amino acid form relative to the shorter isoforms” value in series [6] was “higher stability”.

(Values after publication PMC4861277, “The KISS1 Receptor as an In Vivo Microenvironment Imaging Biomarker of Multiple Myeloma Bone Disease” (PLoS ONE, 2016).)
